Test results: ChEMBL document CHEMBL1201862, “PubChem BioAssay data set” (2004)
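Tested at 5 concentrations; 48 h exposure; 96-well plates; endpoints linearly interpolated, else capped at highest concentration. GI50 is the concentration that inhibits growth by half.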 Activity calls are given as the source filed them. No stated cut-off is given here; in the data, active = GI50 up to about 1.1 µM and inactive = higher.

Experiments:
Assay in all cases: DTP human tumour cell line panel, 48 h
EKVX = tested on: EKVX
PC-3 = tested on: PC-3
OVCAR-3 = tested on: OVCAR-3
RXF 393 = tested on: RXF 393
OVCAR-5 = tested on: OVCAR-5
MOLT-4 = tested on: MOLT-4
KM12 = tested on: KM12
DU-145 = tested on: DU-145
OVCAR-8 = tested on: OVCAR-8
UACC-257 = tested on: UACC-257
SK-MEL-2 = tested on: SK-MEL-2
BT-549 = tested on: BT-549
UO-31 = tested on: UO-31
SF-268 = tested on: SF-268
K562 = tested on: K562
SN12C = tested on: SN12C
NCI/ADR-RES = tested on: NCI/ADR-RES
MDA-MB-231 = tested on: MDA-MB-231
Malme-3M = tested on: Malme-3M
TK-10 = tested on: TK-10
NCI-H522 = tested on: NCI-H522
SW-620 = tested on: SW-620
HL-60 = tested on: HL-60
786-0 = tested on: 786-0
SK-MEL-5 = tested on: SK-MEL-5
COLO 205 = tested on: COLO 205
HCT-15 = tested on: HCT-15
MDA-N = tested on: MDA-N
LOX IMVI = tested on: LOX IMVI
SNB-75 = tested on: SNB-75
U-251 = tested on: U-251
SK-MEL-28 = tested on: SK-MEL-28
HT-29 = tested on: HT-29
A549 = tested on: A549
HCT-116 = tested on: HCT-116
RPMI-8226 = tested on: RPMI-8226
HCC 2998 = tested on: HCC 2998
IGROV-1 = tested on: IGROV-1
SNB-19 = tested on: SNB-19
SF-295 = tested on: SF-295
MCF7 = tested on: MCF7
UACC-62 = tested on: UACC-62
NCI-H460 = tested on: NCI-H460
Hs-578T = tested on: Hs-578T
SR = tested on: SR
HOP-62 = tested on: HOP-62
MDA-MB-435 = tested on: MDA-MB-435
ACHN = tested on: ACHN
NCI-H23 = tested on: NCI-H23
SF-539 = tested on: SF-539
CCRF-CEM = tested on: CCRF-CEM
M14 = tested on: M14
CAKI-1 = tested on: CAKI-1
T47D = tested on: T47D
OVCAR-4 = tested on: OVCAR-4
A498 = tested on: A498
NCI-H226 = tested on: NCI-H226
HOP-92 = tested on: HOP-92
SK-OV-3 = tested on: SK-OV-3

Cc1cccc2cc3c(ccc4ccccc43)c[n+]12
GI50 (EKVX): 4.61 µM (inactive) | GI50 (PC-3): 30.9 µM (inactive) | GI50 (OVCAR-3): 2.06 µM (inactive) | GI50 (RXF 393): 53 µM (inactive) | GI50 (OVCAR-5): > 100 µM (inactive) | GI50 (MOLT-4): 4.89 µM (inactive) | GI50 (KM12): 2.75 µM (inactive) | GI50 (DU-145): 64.6 µM (inactive) | GI50 (OVCAR-8): 15.4 µM (inactive) | GI50 (UACC-257): 14 µM (inactive) | GI50 (SK-MEL-2): 20.3 µM (inactive) | GI50 (BT-549): 7.08 µM (inactive) | GI50 (UO-31): 30.1 µM (inactive) | GI50 (SF-268): 2.83 µM (inactive) | GI50 (K562): 30.1 µM (inactive) | GI50 (SN12C): 3.18 µM (inactive) | GI50 (NCI/ADR-RES): > 100 µM (inactive) | GI50 (MDA-MB-231): 47.5 µM (inactive) | GI50 (Malme-3M): 1.77 µM (inactive) | GI50 (TK-10): > 100 µM (inactive) | GI50 (NCI-H522): 9.25 µM (inactive) | GI50 (SW-620): 21.3 µM (inactive) | GI50 (HL-60): 48.4 µM (inactive) | GI50 (786-0): 18 µM (inactive) | GI50 (SK-MEL-5): 5.65 µM (inactive) | GI50 (COLO 205): 13.3 µM (inactive) | GI50 (HCT-15): > 100 µM | GI50 (MDA-N): 37.9 µM (inactive) | GI50 (LOX IMVI): 50 µM (inactive) | GI50 (SNB-75): 6.56 µM (inactive) | GI50 (U-251): 2.99 µM (inactive) | GI50 (SK-MEL-28): 14.7 µM (inactive) | GI50 (HT-29): 24.7 µM (inactive) | GI50 (A549): 5.86 µM (inactive) | GI50 (HCT-116): 36.9 µM (inactive) | GI50 (RPMI-8226): 22.5 µM (inactive) | GI50 (HCC 2998): 16.3 µM (inactive) | GI50 (IGROV-1): 47.1 µM (inactive) | GI50 (SNB-19): 6.87 µM (inactive) | GI50 (SF-295): 9.86 µM (inactive) | GI50 (MCF7): 13.5 µM (inactive) | GI50 (UACC-62): 23 µM (inactive) | GI50 (NCI-H460): 27.2 µM (inactive) | GI50 (Hs-578T): 5.38 µM (inactive) | GI50 (SR): 6.43 µM (inactive) | GI50 (HOP-62): 7.89 µM (inactive) | GI50 (MDA-MB-435): 33.4 µM (inactive) | GI50 (ACHN): 65.3 µM (inactive) | GI50 (NCI-H23): 7.6 µM (inactive) | GI50 (SF-539): 16.7 µM (inactive) | GI50 (CCRF-CEM): 15.5 µM (inactive)

O=C1c2ccccc2NC2C(O)c3ccccc3N12 (configuration not stated)
GI50 (EKVX): 35.4 µM (inactive) | GI50 (M14): 81.3 µM (inactive) | GI50 (PC-3): 35.4 µM (inactive) | GI50 (OVCAR-3): 37 µM (inactive) | GI50 (RXF 393): > 100 µM (inactive) | GI50 (OVCAR-5): 82.2 µM (inactive) | GI50 (MOLT-4): 21 µM (inactive) | GI50 (KM12): 35.2 µM (inactive) | GI50 (DU-145): 45.6 µM (inactive) | GI50 (CAKI-1): 34.8 µM (inactive) | GI50 (OVCAR-8): 49.1 µM (inactive) | GI50 (UACC-257): 15.3 µM (inactive) | GI50 (SK-MEL-2): 52 µM (inactive) | GI50 (BT-549): 58.2 µM (inactive) | GI50 (UO-31): 40.8 µM (inactive) | GI50 (SF-268): > 100 µM (inactive) | GI50 (K562): 13.9 µM (inactive) | GI50 (SN12C): 94.4 µM (inactive) | GI50 (T47D): 6.5 µM (inactive) | GI50 (NCI/ADR-RES): 40.4 µM (inactive) | GI50 (MDA-MB-231): > 100 µM (inactive) | GI50 (Malme-3M): 3.98 µM (inactive) | GI50 (TK-10): 99.3 µM (inactive) | GI50 (NCI-H522): 4.09 µM (inactive) | GI50 (SW-620): 9.46 µM (inactive) | GI50 (OVCAR-4): 25.5 µM (inactive) | GI50 (786-0): > 100 µM (inactive) | GI50 (SK-MEL-5): 52.7 µM (inactive) | GI50 (COLO 205): 41.1 µM (inactive) | GI50 (HCT-15): 34.6 µM | GI50 (LOX IMVI): 36.6 µM (inactive) | GI50 (A498): 20.6 µM (inactive) | GI50 (SNB-75): > 100 µM (inactive) | GI50 (U-251): 30 µM (inactive) | GI50 (HT-29): 60 µM (inactive) | GI50 (A549): 10.9 µM (inactive) | GI50 (HCT-116): 30.5 µM (inactive) | GI50 (NCI-H226): > 100 µM (inactive) | GI50 (RPMI-8226): 10.1 µM (inactive) | GI50 (HCC 2998): 42.9 µM (inactive) | GI50 (IGROV-1): 72.8 µM (inactive) | GI50 (SNB-19): > 100 µM (inactive) | GI50 (HOP-92): > 100 µM (inactive) | GI50 (SF-295): 28.8 µM (inactive) | GI50 (MCF7): 40.2 µM (inactive) | GI50 (UACC-62): 23.6 µM (inactive) | GI50 (SK-OV-3): > 100 µM (inactive) | GI50 (NCI-H460): 13.2 µM (inactive) | GI50 (Hs-578T): 25.1 µM (inactive) | GI50 (SR): 38.4 µM (inactive) | GI50 (HOP-62): 65 µM (inactive) | GI50 (MDA-MB-435): 17.7 µM (inactive) | GI50 (ACHN): 40.8 µM (inactive) | GI50 (NCI-H23): 29.8 µM (inactive) | GI50 (SF-539): > 100 µM (inactive) | GI50 (CCRF-CEM): 29.4 µM (inactive)
